# According to the supplement of paper PMC10307832:
# What was measured:
# Experiment in all cases: relative viability (nuclei count vs DMSO), 5 days (fraction); higher = more cells survive
# LCLC-97TM1 = test system: LCLC-97TM1
# Procedure, shortened: (§1)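 Dosing by pin tool came one day after lung cancer cell lines were seeded in 1536-well plates, using either one drug or a fixed anchor-drug dose plus five library-drug doses (not always all listed) in √10 steps. After 5 days, nuclei were counted on 4× images. Relative viability is treated-well nuclei count divided by vehicle-well nuclei count, and values are medians of duplicate plates.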
# NCI-H1355 = test system: NCI-H1355
# Procedure, shortened: as §1
# NCI-H1623 = test system: NCI-H1623
# Procedure, shortened: as §1
# NCI-H1993 = test system: NCI-H1993
# Procedure, shortened: as §1
# NCI-H23 = test system: NCI-H23
# Procedure, shortened: as §1
# NCI-H322M = test system: NCI-H322M
# Procedure, shortened: as §1
# NCI-H596 = test system: NCI-H596
# Procedure, shortened: as §1
# UMC-11 = test system: UMC-11
# Procedure, shortened: as §1
# A549 = test system: A549
# Procedure, shortened: as §1
# Calu-6 = test system: Calu-6
# Procedure, shortened: as §1
# EBC-1 = test system: EBC-1
# Procedure, shortened: as §1
# IA-LM = test system: IA-LM
# Procedure, shortened: as §1
# NCI-H1299 = test system: NCI-H1299
# Procedure, shortened: as §1
# NCI-H1648 = test system: NCI-H1648
# Procedure, shortened: as §1
# NCI-H1703 = test system: NCI-H1703
# Procedure, shortened: as §1
compound,measurement,setting,value
Cc1sc2c(c1C)C(c1ccc(Cl)cc1)=N[C@@H](CC(=O)OC(C)(C)C)c1nnc(C)n1-2 [JQ1] + CCNC(=O)c1noc(-c2cc(C(C)C)c(O)cc2O)c1-c1ccc(CN2CCOCC2)cc1 [Luminespib] (partner 0.01 µM),relative viability,LCLC-97TM1; first compound 0.04 µM,0.81
same,relative viability,LCLC-97TM1; first compound 0.1265 µM,0.762
same,relative viability,LCLC-97TM1; first compound 0.4 µM,0.768
same,relative viability,LCLC-97TM1; first compound 1.265 µM,0.356
same,relative viability,LCLC-97TM1; first compound 4 µM,0.3
same,relative viability,NCI-H1355; first compound 0.04 µM,0.715
same,relative viability,NCI-H1355; first compound 0.1265 µM,0.715
same,relative viability,NCI-H1355; first compound 0.4 µM,0.453
same,relative viability,NCI-H1355; first compound 1.265 µM,0.359
same,relative viability,NCI-H1355; first compound 4 µM,0.339
same,relative viability,NCI-H1623; first compound 0.04 µM,0.543
same,relative viability,NCI-H1623; first compound 0.1265 µM,0.593
same,relative viability,NCI-H1623; first compound 0.4 µM,0.459
same,relative viability,NCI-H1623; first compound 1.265 µM,0.466
same,relative viability,NCI-H1623; first compound 4 µM,0.418
same,relative viability,NCI-H1993; first compound 0.04 µM,1.03
same,relative viability,NCI-H1993; first compound 0.1265 µM,0.789
same,relative viability,NCI-H1993; first compound 0.4 µM,0.821
same,relative viability,NCI-H1993; first compound 1.265 µM,0.637
same,relative viability,NCI-H1993; first compound 4 µM,0.889
same,relative viability,NCI-H23; first compound 0.04 µM,0.247
same,relative viability,NCI-H23; first compound 0.1265 µM,0.185
same,relative viability,NCI-H23; first compound 0.4 µM,0.179
same,relative viability,NCI-H23; first compound 1.265 µM,0.166
same,relative viability,NCI-H23; first compound 4 µM,0.173
same,relative viability,NCI-H322M; first compound 0.04 µM,0.797
same,relative viability,NCI-H322M; first compound 0.1265 µM,0.879
same,relative viability,NCI-H322M; first compound 0.4 µM,0.599
same,relative viability,NCI-H322M; first compound 1.265 µM,0.383
same,relative viability,NCI-H322M; first compound 4 µM,0.395
same,relative viability,NCI-H596; first compound 0.04 µM,1.09
same,relative viability,NCI-H596; first compound 0.1265 µM,0.769
same,relative viability,NCI-H596; first compound 0.4 µM,0.495
same,relative viability,NCI-H596; first compound 1.265 µM,0.344
same,relative viability,NCI-H596; first compound 4 µM,0.287
same,relative viability,UMC-11; first compound 0.04 µM,0.865
same,relative viability,UMC-11; first compound 0.1265 µM,0.83
same,relative viability,UMC-11; first compound 0.4 µM,0.336
same,relative viability,UMC-11; first compound 1.265 µM,0.278
same,relative viability,UMC-11; first compound 4 µM,0.219
CC(=O)O[C@@]12CO[C@@H]1C[C@H](O)[C@@]1(C)C(=O)[C@H](O)C3=C(C)[C@@H](OC(=O)[C@H](O)[C@@H](NC(=O)OC(C)(C)C)c4ccccc4)C[C@@](O)([C@@H](OC(=O)c4ccccc4)[C@H]21)C3(C)C [Docetaxel] + O=C(c1cc(Cc2n[nH]c(=O)c3ccccc23)ccc1F)N1CCN(C(=O)C2CC2)CC1 [Olaparib] (partner 8 µM),relative viability,A549; first compound 0.0002 µM,0.341
same,relative viability,A549; first compound 0.000632 µM,0.0796
same,relative viability,A549; first compound 0.002 µM,0.0511
same,relative viability,A549; first compound 0.006325 µM,0.0681
same,relative viability,A549; first compound 0.02 µM,0.0279
same,relative viability,Calu-6; first compound 0.0002 µM,0.604
same,relative viability,Calu-6; first compound 0.000632 µM,0.454
same,relative viability,Calu-6; first compound 0.002 µM,0.243
same,relative viability,Calu-6; first compound 0.006325 µM,0.128
same,relative viability,Calu-6; first compound 0.02 µM,0.0895
same,relative viability,EBC-1; first compound 0.0002 µM,0.579
same,relative viability,EBC-1; first compound 0.000632 µM,0.358
same,relative viability,EBC-1; first compound 0.002 µM,0.213
same,relative viability,EBC-1; first compound 0.006325 µM,0.217
same,relative viability,EBC-1; first compound 0.02 µM,0.162
same,relative viability,IA-LM; first compound 0.0002 µM,0.687
same,relative viability,IA-LM; first compound 0.000632 µM,0.326
same,relative viability,IA-LM; first compound 0.002 µM,0.153
same,relative viability,IA-LM; first compound 0.006325 µM,0.0861
same,relative viability,IA-LM; first compound 0.02 µM,0.074
same,relative viability,LCLC-97TM1; first compound 0.0002 µM,0.467
same,relative viability,LCLC-97TM1; first compound 0.000632 µM,0.272
same,relative viability,LCLC-97TM1; first compound 0.002 µM,0.107
same,relative viability,LCLC-97TM1; first compound 0.006325 µM,0.0877
same,relative viability,LCLC-97TM1; first compound 0.02 µM,0.0634
same,relative viability,NCI-H1299; first compound 0.0002 µM,0.95
same,relative viability,NCI-H1299; first compound 0.000632 µM,0.9
same,relative viability,NCI-H1299; first compound 0.002 µM,0.628
same,relative viability,NCI-H1299; first compound 0.006325 µM,0.351
same,relative viability,NCI-H1299; first compound 0.02 µM,0.241
same,relative viability,NCI-H1355; first compound 0.0002 µM,0.732
same,relative viability,NCI-H1355; first compound 0.000632 µM,0.533
same,relative viability,NCI-H1355; first compound 0.002 µM,0.353
same,relative viability,NCI-H1355; first compound 0.006325 µM,0.203
same,relative viability,NCI-H1355; first compound 0.02 µM,0.164
same,relative viability,NCI-H1648; first compound 0.0002 µM,0.773
same,relative viability,NCI-H1648; first compound 0.000632 µM,0.563
same,relative viability,NCI-H1648; first compound 0.002 µM,0.338
same,relative viability,NCI-H1648; first compound 0.006325 µM,0.279
same,relative viability,NCI-H1648; first compound 0.02 µM,0.21
same,relative viability,NCI-H1703; first compound 0.0002 µM,0.372
same,relative viability,NCI-H1703; first compound 0.000632 µM,0.538
same,relative viability,NCI-H1703; first compound 0.002 µM,0.204
same,relative viability,NCI-H1703; first compound 0.006325 µM,0.174
same,relative viability,NCI-H1703; first compound 0.02 µM,0.0787
same,relative viability,NCI-H1993; first compound 0.0002 µM,0.929
same,relative viability,NCI-H1993; first compound 0.000632 µM,0.918
same,relative viability,NCI-H1993; first compound 0.002 µM,0.793
same,relative viability,NCI-H1993; first compound 0.006325 µM,0.531
same,relative viability,NCI-H1993; first compound 0.02 µM,0.409
same,relative viability,NCI-H23; first compound 0.0002 µM,0.366
same,relative viability,NCI-H23; first compound 0.002 µM,0.221
same,relative viability,NCI-H23; first compound 0.006325 µM,0.164
same,relative viability,NCI-H23; first compound 0.02 µM,0.105
same,relative viability,NCI-H322M; first compound 0.0002 µM,0.777
same,relative viability,NCI-H322M; first compound 0.000632 µM,0.797
same,relative viability,NCI-H322M; first compound 0.002 µM,0.721
same,relative viability,NCI-H322M; first compound 0.006325 µM,0.679
same,relative viability,NCI-H322M; first compound 0.02 µM,0.525
same,relative viability,NCI-H596; first compound 0.0002 µM,0.685
same,relative viability,NCI-H596; first compound 0.000632 µM,0.83
same,relative viability,NCI-H596; first compound 0.002 µM,0.638
same,relative viability,NCI-H596; first compound 0.006325 µM,0.418
same,relative viability,NCI-H596; first compound 0.02 µM,0.338
same,relative viability,UMC-11; first compound 0.0002 µM,0.371
same,relative viability,UMC-11; first compound 0.000632 µM,0.352
same,relative viability,UMC-11; first compound 0.002 µM,0.221
same,relative viability,UMC-11; first compound 0.006325 µM,0.289
same,relative viability,UMC-11; first compound 0.02 µM,0.229
